Results published in ChEMBL document CHEMBL4706771, “Discovery of Orally Bioavailable Ligand Efficient Quinazolindiones as Potent and Selective Tankyrases Inhibitors” (ACS Med Chem Lett, 2021).

Key:
[1] = Toxicity in Wistar Han rat assessed as reduction in body weight at 10 mg/kg, po administered for 7 days and measured on day 7; format: organism-based; set-up: scale not given: the % may be the effect or the level left; conditions: in vivo, 168 h, time 7 day
[2] = Toxicity in Wistar Han rat assessed as tolerability at 10 mg/kg, po administered for 7 days and measured on day 7; format: organism-based; conditions: in vivo, 168 h, time 7 day
Cytochrome P450 2C9 = Cytochrome P450 2C9 (Homo sapiens, UniProt P11712); assay: Inhibition of CYP2C9 (unknown origin); format: ADME
Sequence of Cytochrome P450 2C9 (P11712 whole entry): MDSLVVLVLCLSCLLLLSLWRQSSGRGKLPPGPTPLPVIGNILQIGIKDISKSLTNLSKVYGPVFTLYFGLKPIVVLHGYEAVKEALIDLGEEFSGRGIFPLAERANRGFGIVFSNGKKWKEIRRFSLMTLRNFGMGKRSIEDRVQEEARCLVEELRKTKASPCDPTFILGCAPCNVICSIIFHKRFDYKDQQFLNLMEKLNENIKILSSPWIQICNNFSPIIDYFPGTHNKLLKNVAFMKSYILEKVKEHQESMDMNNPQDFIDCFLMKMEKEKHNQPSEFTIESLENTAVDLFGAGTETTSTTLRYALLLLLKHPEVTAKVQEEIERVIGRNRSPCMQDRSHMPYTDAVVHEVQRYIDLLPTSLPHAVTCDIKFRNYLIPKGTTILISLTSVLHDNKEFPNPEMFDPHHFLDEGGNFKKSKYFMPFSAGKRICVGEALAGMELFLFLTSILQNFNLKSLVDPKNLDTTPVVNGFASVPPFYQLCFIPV

[3] = Toxicity in Wistar Han rat assessed as tolerability at >= 100 mg/kg, po administered for 7 days and measured on day 7; format: organism-based; conditions: in vivo, 168 h, time 7 day
[4] = Toxicity in Wistar Han rat assessed as closed eyes at >= 100 mg/kg, po administered for 7 days and measured on day 7; format: organism-based; conditions: in vivo, 168 h, time 7 day
[5] = Mutagenicity in Salmonella typhimurium TA98 by ames test; format: toxicity; conditions: salmonella enterica subsp. enterica serovar typhimurium
[6] = Mutagenicity in Salmonella typhimurium TA1535 by ames test; format: toxicity; conditions: salmonella enterica subsp. enterica serovar typhimurium
Cytochrome P450 2C19 = Cytochrome P450 2C19 (Homo sapiens, UniProt P33261); assay: Inhibition of CYP2C19 (unknown origin); format: ADME
Sequence of Cytochrome P450 2C19 (P33261 whole entry): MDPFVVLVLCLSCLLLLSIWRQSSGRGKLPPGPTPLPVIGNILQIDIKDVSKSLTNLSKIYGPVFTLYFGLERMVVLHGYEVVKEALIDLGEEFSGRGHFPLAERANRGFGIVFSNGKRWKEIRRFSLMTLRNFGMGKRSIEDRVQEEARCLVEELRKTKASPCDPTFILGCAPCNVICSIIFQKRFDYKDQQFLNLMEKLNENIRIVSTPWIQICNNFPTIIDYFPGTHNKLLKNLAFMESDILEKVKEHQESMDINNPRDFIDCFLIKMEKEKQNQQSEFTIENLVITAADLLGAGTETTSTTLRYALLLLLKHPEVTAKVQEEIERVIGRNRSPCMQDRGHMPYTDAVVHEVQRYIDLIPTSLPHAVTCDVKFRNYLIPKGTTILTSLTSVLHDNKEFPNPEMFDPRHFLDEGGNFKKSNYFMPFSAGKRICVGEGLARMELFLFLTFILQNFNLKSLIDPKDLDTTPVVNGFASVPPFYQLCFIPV

[7] = Dose normalised AUC in Sprague-Dawley rat at 8.6 mg/kg, po; format: ADME, organism-based; conditions: in vivo
[8] = Volume of distribution in Sprague-Dawley rat at 8.6 mg/kg, po or 0.5 mg/kg, iv; format: ADME, organism-based; conditions: in vivo
[9] = Toxicity in Wistar Han rat assessed as decrease in skin elasticity at >= 100 mg/kg, po administered for 7 days and measured on day 7; format: organism-based; conditions: in vivo, 168 h, time 7 day
[10] = Dose normalised AUC in Beagle dog at 2 mg/kg, po; format: ADME, organism-based, Canis lupus familiaris; conditions: in vivo
[11] = molecular target: T1, Poly [ADP-ribose] polymerase tankyrase-1 (Homo sapiens, UniProt O95271); assay: Inhibition of human TNKS1 incubated for 1 to 2 hrs by fluorescence polarization assay
T1 sequence (O95271 whole entry): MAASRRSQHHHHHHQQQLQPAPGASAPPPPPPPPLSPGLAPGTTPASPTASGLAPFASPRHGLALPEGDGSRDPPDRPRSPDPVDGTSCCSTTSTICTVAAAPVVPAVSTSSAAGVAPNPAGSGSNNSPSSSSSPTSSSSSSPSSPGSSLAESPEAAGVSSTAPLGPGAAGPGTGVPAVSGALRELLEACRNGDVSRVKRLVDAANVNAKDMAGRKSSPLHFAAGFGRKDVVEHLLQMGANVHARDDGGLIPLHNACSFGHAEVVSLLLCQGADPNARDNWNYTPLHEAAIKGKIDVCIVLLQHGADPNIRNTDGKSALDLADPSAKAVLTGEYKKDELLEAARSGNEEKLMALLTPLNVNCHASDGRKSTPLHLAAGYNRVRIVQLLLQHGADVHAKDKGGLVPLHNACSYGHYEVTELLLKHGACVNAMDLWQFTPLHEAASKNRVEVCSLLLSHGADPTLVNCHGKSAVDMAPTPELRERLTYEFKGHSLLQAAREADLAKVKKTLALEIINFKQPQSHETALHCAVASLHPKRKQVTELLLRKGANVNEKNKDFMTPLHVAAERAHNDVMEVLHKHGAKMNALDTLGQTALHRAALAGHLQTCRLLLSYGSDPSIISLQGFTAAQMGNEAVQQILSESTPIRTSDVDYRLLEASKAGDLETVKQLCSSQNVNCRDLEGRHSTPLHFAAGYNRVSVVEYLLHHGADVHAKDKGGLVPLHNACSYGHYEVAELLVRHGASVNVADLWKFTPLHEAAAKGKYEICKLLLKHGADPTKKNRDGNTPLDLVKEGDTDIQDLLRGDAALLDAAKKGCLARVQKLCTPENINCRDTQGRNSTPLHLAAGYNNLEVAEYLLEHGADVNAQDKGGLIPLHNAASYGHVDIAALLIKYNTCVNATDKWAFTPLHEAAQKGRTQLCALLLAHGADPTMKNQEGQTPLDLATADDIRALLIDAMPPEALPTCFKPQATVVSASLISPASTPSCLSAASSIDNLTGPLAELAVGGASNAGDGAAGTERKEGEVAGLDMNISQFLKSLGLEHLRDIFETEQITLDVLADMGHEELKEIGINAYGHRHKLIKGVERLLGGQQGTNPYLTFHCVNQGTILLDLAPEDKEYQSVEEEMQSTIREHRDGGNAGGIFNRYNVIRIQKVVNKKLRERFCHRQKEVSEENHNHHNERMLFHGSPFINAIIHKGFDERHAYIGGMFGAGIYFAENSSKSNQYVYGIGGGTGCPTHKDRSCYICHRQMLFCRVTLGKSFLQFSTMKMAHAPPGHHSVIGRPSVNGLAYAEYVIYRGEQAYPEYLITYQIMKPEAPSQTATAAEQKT

[12] = Mutagenicity in Salmonella typhimurium TA100 by ames test; format: toxicity; conditions: salmonella enterica subsp. enterica serovar typhimurium
[13] = Oral bioavailability in Sprague-Dawley rat at 8.6 mg/kg; format: ADME, organism-based; conditions: in vivo
[14] = Oral bioavailability in C57 mouse at 3 mg/kg; format: ADME, organism-based; conditions: in vivo
Cytochrome P450 3A4 = Cytochrome P450 3A4 (Homo sapiens, UniProt P08684); assay: Inhibition of CYP3A4 (unknown origin); format: ADME
Sequence of Cytochrome P450 3A4 (P08684 whole entry): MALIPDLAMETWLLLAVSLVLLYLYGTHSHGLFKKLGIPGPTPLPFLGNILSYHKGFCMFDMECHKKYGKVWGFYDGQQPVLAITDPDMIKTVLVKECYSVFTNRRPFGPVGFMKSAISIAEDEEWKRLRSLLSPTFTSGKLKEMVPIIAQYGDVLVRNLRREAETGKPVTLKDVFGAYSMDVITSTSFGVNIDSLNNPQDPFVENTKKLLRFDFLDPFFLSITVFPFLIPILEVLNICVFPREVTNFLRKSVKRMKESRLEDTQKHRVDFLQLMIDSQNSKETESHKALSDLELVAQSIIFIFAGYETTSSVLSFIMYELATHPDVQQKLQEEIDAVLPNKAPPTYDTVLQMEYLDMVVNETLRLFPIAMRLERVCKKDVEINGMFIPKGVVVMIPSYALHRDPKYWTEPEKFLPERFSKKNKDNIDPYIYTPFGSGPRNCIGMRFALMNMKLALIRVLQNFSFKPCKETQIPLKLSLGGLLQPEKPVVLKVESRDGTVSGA

Cytochrome P450 1A2 = molecular target: T2, Cytochrome P450 1A2 (Homo sapiens, UniProt P05177); assay: Inhibition of CYP1A2 (unknown origin); format: ADME
T2 sequence (P05177 whole entry): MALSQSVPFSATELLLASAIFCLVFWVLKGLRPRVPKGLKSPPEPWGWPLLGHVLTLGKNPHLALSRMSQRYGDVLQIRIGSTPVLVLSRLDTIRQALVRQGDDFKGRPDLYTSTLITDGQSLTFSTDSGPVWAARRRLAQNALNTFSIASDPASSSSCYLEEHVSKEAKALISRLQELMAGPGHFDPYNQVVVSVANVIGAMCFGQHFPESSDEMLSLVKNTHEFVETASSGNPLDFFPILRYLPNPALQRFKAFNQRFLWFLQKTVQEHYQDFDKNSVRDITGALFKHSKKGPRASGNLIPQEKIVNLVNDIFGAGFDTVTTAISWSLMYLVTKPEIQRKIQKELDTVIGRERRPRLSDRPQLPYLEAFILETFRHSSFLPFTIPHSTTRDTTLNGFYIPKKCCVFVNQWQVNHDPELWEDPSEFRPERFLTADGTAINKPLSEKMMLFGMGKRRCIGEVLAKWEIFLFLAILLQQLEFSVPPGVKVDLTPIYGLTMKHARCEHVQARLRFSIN

[15] = Clearance in C57 mouse at 3 mg/kg, po or 1 mg/kg, iv; format: ADME, organism-based; conditions: in vivo
Cytochrome P450 2D6 = Cytochrome P450 2D6 (Homo sapiens, UniProt P10635); assay: Inhibition of CYP2D6 (unknown origin); format: ADME
Sequence of Cytochrome P450 2D6 (P10635 whole entry): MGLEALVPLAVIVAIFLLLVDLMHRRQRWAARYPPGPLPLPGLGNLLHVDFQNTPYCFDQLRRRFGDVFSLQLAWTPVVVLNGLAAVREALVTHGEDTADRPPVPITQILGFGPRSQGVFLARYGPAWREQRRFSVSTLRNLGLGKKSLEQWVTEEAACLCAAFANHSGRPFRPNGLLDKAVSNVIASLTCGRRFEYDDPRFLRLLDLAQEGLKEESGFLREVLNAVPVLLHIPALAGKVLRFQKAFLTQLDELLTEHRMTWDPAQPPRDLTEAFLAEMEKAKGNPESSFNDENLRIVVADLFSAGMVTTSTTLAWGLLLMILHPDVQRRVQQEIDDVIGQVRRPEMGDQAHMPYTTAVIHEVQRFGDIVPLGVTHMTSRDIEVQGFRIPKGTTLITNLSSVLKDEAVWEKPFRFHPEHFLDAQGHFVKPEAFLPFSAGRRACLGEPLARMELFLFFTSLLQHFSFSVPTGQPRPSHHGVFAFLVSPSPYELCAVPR

[16] = Dose normalised AUC in C57 mouse at 3 mg/kg, po; format: ADME, organism-based; conditions: in vivo
[17] = Toxicity in BALB/c mouse xenografted with human NCI-H292 cells assessed as tolerability at 10 to 30 mg/kg, po for 14 days and measured on day 14; format: organism-based; conditions: in vivo, 336 h, dose 10-30 mg/kg, time 14 day
[18] = Volume of distribution in C57 mouse at 3 mg/kg, po or 1 mg/kg, iv; format: ADME, organism-based; conditions: in vivo

IC50 (Cytochrome P450 2C9): 84 µM
IC50 (Cytochrome P450 2C19): 36 µM
AUC/dose [7]: 6651 ng·h/mL
Vd [8]: 0.97 L/kg
AUC/dose [10]: 2937 ng·h/mL
IC50 [11]: 0.004 µM
bioavailability [13]: 133%
bioavailability [14]: 37.1%
IC50 (Cytochrome P450 3A4): > 100 µM
IC50 (Cytochrome P450 1A2): > 100 µM
clearance [15]: 1.44 mL/min/kg
IC50 (Cytochrome P450 2D6): > 100 µM
AUC/dose [16]: 5831 ng·h/mL
Vd [18]: 1.34 L/kg
Compound: Cc1cccc2c1c(=O)n(C[C@H]1CC[C@H](C(=O)O)CC1)c(=O)n2Cc1cccc(C(F)(F)F)c1C#N
Activity [1]: 8%
Activity [2]: Non-Toxic
Activity [3]: Toxic
Activity [4]: Toxic
Activity [5]: Non-Toxic
Activity [6]: Non-Toxic
Activity [9]: Toxic
Activity [12]: Non-Toxic
Activity [17]: Non-Toxic
